Experimental data taken from patent US6696451B1 (dated 2004).

| melting point | Structure (SMILES) |
| --- | --- |
| 138 to 140 °C | CCOC(=O)C1=C(C)NC(c2ncccc2Cl)=NC1c1ccccc1Cl (stereo not drawn) |
| 95 to 96 °C | COC(=O)C1=C(C)NC(c2ncccc2Cl)=NC1c1ccc(F)cc1Cl (stereo not drawn) |
| 103 to 104 °C | COC(=O)C1=C(C)NC(c2ncccc2Cl)=NC1c1ccc(Br)cc1F (stereo not drawn) |
| 167 to 169 °C | CCOC(=O)C1=C(C)NC(c2ncccc2F)=NC1c1ccc(F)cc1C (stereo not drawn) |
| 127 to 129 °C | COC(=O)C1=C(C)NC(c2ncccc2F)=NC1c1ccc(F)cc1 (stereo not drawn) |
| 121 to 123 °C | COC(=O)C1=C(C)NC(c2ccc(C(F)(F)F)cn2)=NC1c1ccccc1Cl (stereo not drawn) |
| 133 to 134 °C | CCOC(=O)C1=C(C)NC(c2ncccc2F)=NC1c1ccc(Cl)cc1 (stereo not drawn) |
| 131 °C | COC(=O)C1=C(C)NC(c2ccc(F)cn2)=NC1c1ccc(F)cc1Cl (stereo not drawn) |
| 162 to 163 °C | CCOC(=O)C1=C(C)NC(c2ncccc2F)=NC1c1ccc(Cl)cc1F (stereo not drawn) |
| 165 to 167 °C | COC(=O)C1=C(C)NC(c2ncccc2F)=NC1c1ccccc1C(F)(F)F (stereo not drawn) |
| 137 to 138 °C | CCOC(=O)C1=C(C)NC(c2ncccc2Cl)=NC1c1ccccc1Br (stereo not drawn) |
| 143 to 144 °C | COC(=O)C1=C(C)NC(c2ncccc2F)=NC1c1ccccc1Br (stereo not drawn) |
| 210 to 212 °C | COC(=O)C1=C(C)NC(c2ncccc2F)=NC1c1ccccc1Cl.Cl (stereo not drawn) |
| 141 °C | CCOC(=O)C1=C(C)NC(c2ccc(OC)cn2)=NC1c1ccc(F)cc1Cl (stereo not drawn) |
| 129 to 130 °C | CCOC(=O)C1=C(C)NC(c2ncccc2F)=NC1c1ccc(F)cc1 (stereo not drawn) |
| 142 to 143 °C | COC(=O)C1=C(C)NC(c2ncccc2F)=NC1c1ccc([N+](=O)[O-])cc1 (stereo not drawn) |
| 163 to 164 °C | CCOC(=O)C1=C(C)NC(c2ncccc2F)=NC1c1ccccc1I (stereo not drawn) |
| 145 to 146 °C | CCOC(=O)C1=C(C)NC(c2ncccc2F)=NC1c1ccc(I)cc1 (stereo not drawn) |
| 180 to 182 °C | COC(=O)C1=C(C)NC(c2ncccc2F)=NC1c1c(Cl)cccc1Cl (stereo not drawn) |
| 110 to 111 °C | COC(=O)C1=C(C)NC(c2ncccc2F)=NC1c1ccccc1 (stereo not drawn) |
| 121 to 123 °C | COC(=O)C1=C(C)NC(c2ncccc2F)=NC1c1ccc(F)cc1Cl (stereo not drawn) |
| 247 to 248 °C | CCOC(=O)C1=C(C)NC(c2ncccc2F)=NC1c1ccc(O)cc1Cl (stereo not drawn) |
| 139 to 140 °C | COC(=O)C1=C(C)NC(c2ncccc2F)=NC1c1ccc(Cl)cc1 (stereo not drawn) |

| melting point | Structure (SMILES) |
| --- | --- |
| 163 to 165 °C | COC(=O)C1=C(C)NC(c2ccc(Cl)cn2)=NC1c1ccccc1Cl (stereo not drawn) |
| 120 to 122 °C | COC(=O)C1=C(C2CC2)NC(c2ncccc2F)=NC1c1ccccc1Cl (stereo not drawn) |
| 120 to 122 °C | COC(=O)C1=C(C)NC(c2ncccc2F)=NC1c1ccc(Cl)cc1F (stereo not drawn) |
| 132 to 133 °C | CC(=O)C1=C(C)NC(c2ncccc2F)=NC1c1ccccc1Cl (stereo not drawn) |
| 132 °C | COC(=O)C1=C(C)NC(c2cc(OC)ccn2)=NC1c1ccc(F)cc1Cl (stereo not drawn) |
| 124 °C | CCOC(=O)C1=C(C)NC(c2ccc(F)cn2)=NC1c1ccc(F)cc1Cl (stereo not drawn) |
| 133 to 134 °C | CCOC(=O)C1=C(C)NC(c2ncccc2F)=NC1c1cc(Cl)cc(Cl)c1 (stereo not drawn) |
| 135 to 137 °C | COC(=O)C1=C(C)NC(c2ncccc2F)=NC1c1ccc(Cl)c([N+](=O)[O-])c1 (stereo not drawn) |
| 123 to 125 °C | CC1=C(C(=O)OCCOc2ccccc2)C(c2ccccc2Cl)N=C(c2ncccc2F)N1 (stereo not drawn) |
| 174 to 175 °C | COC(=O)C1=C(C)NC(c2ncccc2F)=NC1c1cccc2ncc(-c3ccccc3)cc12 (stereo not drawn) |
| 156 to 157 °C | COC(=O)C1=C(C)NC(c2ncccc2F)=NC1c1ccc(Br)cc1 (stereo not drawn) |
| 126 to 127 °C | CCOC(=O)C1=C(C)NC(c2ncccc2Cl)=NC1c1ccc(Br)cc1F (stereo not drawn) |
| 144 to 146 °C | COC(=O)C1=C(C)NC(c2ncccc2Cl)=NC1c1ccccc1Cl (stereo not drawn) |
| 184 to 186 °C | CCOC(=O)C1=C(C)NC(c2ncccc2F)=NC1c1ccc(Cl)cc1[N+](=O)[O-] (stereo not drawn) |
| 140 to 142 °C | CCOC(=O)C1=C(C)NC(c2ncccc2F)=NC1c1c(F)cccc1F (stereo not drawn) |
| 134 to 135 °C | CCOC(=O)C1=C(C)NC(c2ncccc2F)=NC1c1ccc(Br)cc1 (stereo not drawn) |
| 156 to 158 °C | CCOC(=O)C1=C(C)NC(c2ncccc2F)=NC1c1ccc(Br)cc1F (stereo not drawn) |
| 142 to 143 °C | COC(=O)C1=C(C)NC(c2cccc(C)n2)=NC1c1ccccc1Cl (stereo not drawn) |
| 124 to 126 °C | C=CCOC(=O)C1=C(C)NC(c2ncccc2F)=NC1c1ccccc1Cl (stereo not drawn) |
| 148 to 149 °C | CCOC(=O)C1=C(C)NC(c2ncccc2F)=NC1c1c(Cl)cccc1Cl (stereo not drawn) |
| 135 to 136 °C | COC(=O)C1=C(C)NC(c2ncccc2F)=NC1c1cc([N+](=O)[O-])c(Cl)cc1F (stereo not drawn) |
| 131 to 132 °C | COC(=O)C1=C(C)NC(c2ncccc2Cl)=NC1c1ccccc1Br (stereo not drawn) |
